Where “and” joins values, the source holds several entries; their conditions need not be identical. Identical values can stand only once.
Legend:
Format in all cases: biochemical
FIH [1] = target: T1, FIH (Homo sapiens, UniProt Q9NWT6); assay: O2 dependence of FIH-catalyzed hydroxylation (hypoxia workstation); conditions: for Km: FIH with the named substrate, 5 μM FIH, 500 μM peptide, 50 μM Fe(II), 1 mM 2OG, 1 mM L-ascorbate, 50 mM HEPES pH 7.5, 37 °C, hypoxia workstation at different pO2, triplicate assays, read-out: Km^app(O2)
T1 construct: Full-length recombinant FIH, two- and three-consensus ankyrin repeats (2CA and 3CA) were produced as described; His6 (cleaved yes); made in house; host or cells: Escherichia coli BL21(DE3)
Procedure: The O2 dependence of FIH-catalyzed reactions was determined by conducting enzymatic assays in an “In vivo 500 Hypoxia Workstation” (Ruskinn) using buffers pre-equilibrated under different pO2 values for 24 h. The O2 dependence of PHD2-catalyzed reactions was determined by conducting enzymatic assays in sealed glass vials with variable N2/O2 contents ([42]). Reactions were stopped by spotting samples onto a matrix-assisted laser desorption/ionization-time of flight mass spectrometry (MALDI-TOF-MS) target plate and immediately mixing with α-cyano-4-hydroxycinnamic acid matrix. Hydroxylation levels were assessed by MALDI-TOF-MS as described ([46]).
FIGURE 4. O2 dependence of FIH- and PHD2-catalyzed hydroxylation of HIF-1/2α. A, O2 dependence of PHD2-catalyzed hydroxylation of HIF-1/2α CODD/NODD 19-mer peptides. 4 μM PHD2, peptide (varied), 50 μM Fe(II), 2OG (varied), 4 mM L-ascorbate in HEPES 50 mM (pH 7.5) were incubated at 37 °C. The different O2 levels were maintained using mass flow controllers ([42]), and the hydroxylation levels were analyzed by MALDI-TOF-MS. B, O2 dependence of FIH-catalyzed hydroxylation of CAD HIF-1/2α 35-mer peptides. Conditions were as follows. 5 μM FIH, 500 μM peptide, 50 μM Fe(II), 1 mM 2OG, 1 mM L-ascorbate in HEPES 50 mM (pH 7.5) were incubated at 37 °C in a hypoxia work station under different pO2. […] Error bars, S.D. of triplicate assays.
FIGURE 8. Time course and O2 dependence of the FIH-catalyzed hydroxylation of HIF-α CAD and ARD substrates. Conditions were as follows. 5 μM FIH, 500 μM peptide, 50 μM Fe(II), 1 mM 2OG, 1 mM L-ascorbate in HEPES 50 mM (pH 7.5) were incubated at 37 °C. For O2 dependence studies, reactions were carried out in a hypoxic work station under different pO2 (assays at >20% O2 conducted using mass flow controllers ([42])). The different hydroxylation levels were analyzed by MALDI-TOF-MS or by LC-MS (for 2CA and 3CA). […] Error bars, S.D. of triplicate assays. A, time course of consensus ARD substrate hydroxylation (tankyrase-1 (tnkrs-1 20-mer and 35-mer) and one-consensus ankyrin repeat 20-mer (1CA)). B, time course of ARD peptide hydroxylation (one-consensus ankyrin repeat 20-mer (1CA), two ankyrin repeats (2CA), and three ankyrin repeats (3CA)). C, O2 dependence of HIF-1/2α CAD, 1CA, and tnkrs-1_35-mer hydroxylation. D, O2 dependence of 1CA, 2CA, and 3CA hydroxylation.

FIH [2] = target: T1, FIH; assay: Stopped-flow UV-visible spectroscopy, FIH·Fe(II)·2OG·substrate + O2; conditions: anaerobic 0.5 mM FIH, 1 mM substrate, 5 mM 2OG, 0.4 mM Fe(II), 50 mM HEPES pH 7.5, mixed 1:1 with O2-saturated buffer at 5 °C; double exponential fit
Procedure: Stopped-flow UV-visible spectroscopy experiments were performed as described previously ([32], [42]). Anerobically prepared assay mixtures containing 0.5 mM apo-FIH, 1 mM substrate, 5 mM 2OG, 0.4 mM Fe(II) or 0.8 mM apo-PHD2, 1 mM substrate, 5 mM 2OG, 0.5 mM Fe(II) were rapidly mixed with O2-free/O2-saturated buffer. The reaction was observed over 1000 s using a photodiode array detector, and kinetic traces were analyzed using Origin version 8.51 software. Data were fitted with a double exponential function (y = A1 × exp(−kriset) + A2 × exp(−kfallt) + y0). The A1, A2, and y0 parameters were restricted with upper limits to match the observed amplitude/offset changes.
Kinetic traces were fitted using a double exponential function; the fitting parameters of intermediate formation and decay are summarized in Table 3.
FIGURE 10. Stopped-flow UV-visible absorbance changes upon FIH-catalyzed hydroxylation of HIF-1/2α CAD and ARD substrates. Reaction mixtures containing anaerobic 0.5 mM apo-FIH, 0.4 mM Fe(II), 5 mM 2OG, and 1 mM peptide in HEPES 50 mM (pH 7.5) were rapidly mixed with O2-saturated buffer at 5 °C in 1:1 ratio and analyzed using a photodiode array detector. The data were fitted with a double exponential function. A, decay at 500 nm (representing enzyme·substrate complex depletion) observed upon FIH-catalyzed hydroxylation of ARD substrates compared with HIF-1/2α CAD. B, formation and degradation of 310 nm species observed upon FIH-catalyzed HIF-1/2α CAD and ARD hydroxylation. C, decay at 500 nm observed upon FIH-catalyzed hydroxylation of 1CA, 2CA, and 3CA substrates.

PHD2 = target: T2, PHD2 (Homo sapiens, UniProt Q9GZT9); assay: Time course of PHD2-catalyzed peptide hydroxylation; conditions: 4 μM PHD2, 100 μM peptide, 50 μM Fe(II), 300 μM 2OG, 1 mM L-ascorbate, 50 mM HEPES pH 7.5, 37 °C, atmospheric O2; MALDI-TOF-MS; triplicate assays
T2 construct: The catalytic domain of PHD2 (residues 181–426) was purified as described; made in house
Procedure: Enzymatic assays were conducted as described ([46], [47]). Unless otherwise stated, the assay mixture typically contained 5 μM FIH, 500 μM substrate, 500 μM 2OG, 1 mM L-ascorbate, and 50 μM Fe(NH4)2(SO4)2 or 4 μM PHD2, 100 μM substrate, 300 μM 2OG, 4 mM L-ascorbate, and 50 μM Fe(NH4)2(SO4)2. For HIF-1α CODD19-mer, the background levels of methionine oxidation resulting from assay conditions were subtracted based on non-enzymatic controls ([48]).
FIGURE 3. PHD2- and FIH-catalyzed hydroxylation of HIF-1/2α peptide substrates. A, time course of HIF-1/2α CODD19-mer peptide hydroxylation; B, time course of HIF-1/2α NODD19-mer peptide hydroxylation. Conditions were as follows: 4 μM PHD2, 100 μM peptide, 50 μM Fe(II), 300 μM 2OG, 1 mM L-ascorbate in HEPES 50 mM (pH 7.5) were incubated at 37 °C at atmospheric O2. C, time course of HIF-1α CAD 19- and 35-mer peptide hydroxylation. D, time course of HIF-2α CAD 19- and 35-mer peptide hydroxylation. Conditions were as follows: 5 μM FIH, 500 μM peptide, 50 μM Fe(II), 500 μM 2OG, 1 mM L-ascorbate in HEPES 50 mM (pH 7.5) were incubated at 37 °C at atmospheric O2. The different hydroxylation levels were analyzed by MALDI-TOF-MS. Error bars, S.D. of triplicate assays.

T1 sequence (Q9NWT6 whole entry): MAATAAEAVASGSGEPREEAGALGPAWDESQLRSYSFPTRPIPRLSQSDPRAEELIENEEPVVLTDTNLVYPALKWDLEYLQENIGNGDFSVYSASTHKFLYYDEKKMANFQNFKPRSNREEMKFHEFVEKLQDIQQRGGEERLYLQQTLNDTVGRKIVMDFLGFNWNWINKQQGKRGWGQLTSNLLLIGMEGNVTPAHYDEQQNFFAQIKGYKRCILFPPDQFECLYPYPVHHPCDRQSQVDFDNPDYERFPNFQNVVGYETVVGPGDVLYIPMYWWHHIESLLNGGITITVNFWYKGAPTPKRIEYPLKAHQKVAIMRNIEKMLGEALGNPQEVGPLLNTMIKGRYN
T2 sequence (Q9GZT9 181-426): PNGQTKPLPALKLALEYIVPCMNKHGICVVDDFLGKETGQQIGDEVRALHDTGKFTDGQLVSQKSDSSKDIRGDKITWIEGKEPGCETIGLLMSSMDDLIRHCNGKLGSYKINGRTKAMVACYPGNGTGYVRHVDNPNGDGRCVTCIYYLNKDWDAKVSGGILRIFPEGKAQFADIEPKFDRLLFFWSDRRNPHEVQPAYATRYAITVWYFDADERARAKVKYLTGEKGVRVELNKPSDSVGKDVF

Sequence | Km (FIH [1]) [µM] | Stopped-flow, 500 nm (FIH) kfall phase (FIH [2]) [s⁻¹] | Stopped-flow, 500 nm (FIH) krise phase (FIH [2]) | Half-saturation of O2 (FIH [1]; FIH-catalyzed hydroxylation, hypoxia workstation, 37 °C) | substrate hydroxylation after 15 min (PHD2) [%] | Km^app(O2) fold higher than in the presence of 1CA and 2CA (FIH [1]; FIH) [fold]
AAGYNNLEVAEYLLEHGADVNAQDKGGLIPLHNAA [tnkrs-1_35-mer, 35-mer fragment of tankyrase-1, ARD substrate of FIH] | 50 ± 10 | 14.8 ± 0.2 | 0.27 ± 0.03 s⁻¹ | – | – | –
DESGLPQLTSYDCEVNAPIQGSRNLLQGEELLRAL [HIF-1α CAD35-mer] | 110 ± 30 | 4.5 ± 0.3 | 0.009 ± 0.005 s⁻¹ | 9–11 % O2 | – | –
EELAQLAPTPGDAIISLDF [HIF-2α NODD, 19-mer fragment (398–416) of the HIF-2α N-terminal oxygen-dependent degradation domain, PHD2 substrate] | – | – | – | – | 20 | –
ELDLETLAPYIPMDGEDFQ [HIF-2α CODD, 19-mer fragment (523–541) of the HIF-2α C-terminal oxygen-dependent degradation domain, PHD2 substrate] | – | – | – | – | 90 | –
ESYLLPELTRYDCEVNVPVLGSSTLLQGGDLLRAL [HIF-2α CAD35-mer] | 110 ± 10 | 4.9 ± 0.2 | 0.017 ± 0.01 s⁻¹ | – | – | –
GSHMGSDLGKKLLEAARAGQDDEVRILMANGADVAAKDKNGSTPLHLAARNGHLEVVKLLLEAGADVNAQDKFGKTAFDISIDNGNEDLAEILQ [3CA, recombinant three-consensus ankyrin repeat protein produced in Escherichia coli] | 120 ± 20 | 10.5 ± 0.1 | 1.7 s⁻¹ and 1.7 ± 0.3 s⁻¹ | – | – | 2
HLEVVKLLLEAGADVNAQDK [1CA20-mer] | 40 ± 10 | 17.6 ± 0.1 | 0.4 ± 0.1 s⁻¹ | – | – | –
SDKNGSTPLHLAARNGHLEVVKLLLEHGADVNAQDKWGKTAFDISIDNGNEDLAEILQ [2CA, recombinant two-consensus ankyrin repeat protein produced in Escherichia coli] | 56 ± 15 | 11.9 ± 0.2 | 0.6 ± 0.1 s⁻¹ | – | – | –

From article PMC4528135, “Kinetic Investigations of the Role of Factor Inhibiting Hypoxia-inducible Factor (FIH) as an Oxygen Sensor” (The Journal of Biological Chemistry, 2015)
